From US9556158B2, “Fungicidal 3-[(pyridin-2-ylmethoxyimino)(phenyl)methyl]-2-substituted-1,2,4-oxadiazol-5(2H)-one derivatives” (BAYER INTELLECTUAL PROPERTY GMBH, priority 2011, dated 2017) come the findings set out here.

For data set [1] the following is noted: pH 2.7, LogP, HPLC on reversed phase columns, pH 2.7, 0.1% formic acid in water / acetonitrile gradient.
Method: Measurement of log P values was performed according EEC directive 79/831 Annex V.A8 by HPLC (High Performance Liquid Chromatography) on reversed phase columns with the following method:
Measurement of LC-MS was done at pH 2.7 with 0.1% formic acid in water and with acetonitrile (contains 0.1% formic acid) as eluent with a linear gradient from 10% acetonitrile to 95% acetonitrile.
Calibration was done with not branched alkan2-ones (with 3 to 16 carbon atoms) with known log P-values (measurement of log P values using retention times with linear interpolation between successive alkanones). lambda-maX-values were determined using UV-spectra from 200 nm to 400 nm and the peak values of the chromatographic signals.
Another data set has as its system Phytophthora infestans. Briefly: whole plant or invertebrate. Format: in vivo. The following applies: in Solanum lycopersicum, 120 h, read-out: % efficacy.
[2] abbreviates: compounds of formula (V), Table 2.

The structures appear in SMILES notation. Like-named read-outs stand apart in the source and are kept apart here.

`COc1cccc(C(=NOCc2cccc(NC(=O)OCc3ccccc3)n2)c2nc(=O)on2C)c1` [Example 104]: the chromatographic logP (as a rule, a lipophilicity value derived from retention on a column) in data set [1] worked out at 3.42. In the data set with Phytophthora infestans, the pest or weed control at 500 ppm amounted to 88%.

Regarding `COc1cccc(C(=NOCc2cccc(NC(=O)OC3CCCCC3)n2)c2nc(=O)on2C)c1` [Example 28], the chromatographic logP in data set [1] amounted to 3.85. Besides, the pest or weed control at 500 ppm with Phytophthora infestans was determined as 78%.

As to `CCCCCC(=O)Nc1cccc(CON=C(c2cccc(C)c2)c2nc(=O)on2C)n1` [Example 59], the chromatographic logP in data set [1] came to 3.58. Besides, in the data set on Phytophthora infestans, the pest or weed control at 500 ppm turned out to be 90%.

Regarding `CCn1oc(=O)nc1/C(=N\OCc1cccc(NC(=O)OC(C)(C)C)n1)c1ccccc1` [Example 40, tert-butyl {6-[({[(Z)-(2-ethyl-5-oxo-2,5-dihydro-1,2,4-oxadiazol-3-yl)(phenyl)methylene]amino}oxy)methyl]pyridin-2-yl}carbamate], in data set [1], the chromatographic logP was 3.58. In addition, in the data set on Phytophthora infestans, the pest or weed control at 500 ppm turned out to be 73%.

Take `CCCCC(=O)Nc1cccc(CON=C(c2cccc(F)c2)c2nc(=O)o[nH]2)n1` [Example 72]: in data set [1], the chromatographic logP was 2.98. Further, the pest or weed control at 500 ppm with Phytophthora infestans turned out to be 85%.

`COc1cccc(C(=NOCc2cccc(NC(=O)c3ccc(C)cc3)n2)c2nc(=O)on2C)c1` [Example 106] gave a chromatographic logP in data set [1] of 3.27. In addition, in the data set on Phytophthora infestans, the pest or weed control at 500 ppm was found to be 90%.

For `Cc1cccc(C(=NOCc2cccc(NC(=O)c3ccc(F)cc3)n2)c2nc(=O)on2C)c1` [Example 87], in data set [1], the chromatographic logP turned out to be 3.33. For the same molecule, in the data set on Phytophthora infestans, the pest or weed control at 500 ppm was found to be 75%.

In turn, `Cc1cccc(C(=NOCc2cccc(NC(=O)CC(C)C)n2)c2nc(=O)on2C)c1` [Example 85] registered a chromatographic logP in data set [1] of 3.13. The pest or weed control at 500 ppm with Phytophthora infestans came to 100%.

Turning to `C#CCCOC(=O)Nc1cccc(CON=C(c2cccc(OC)c2)c2nc(=O)on2C)n1` [Example 96], in data set [1], the chromatographic logP stood at 2.75. Further, the pest or weed control at 500 ppm with Phytophthora infestans came out at 90%.

As to `CCCCCCC(=O)Nc1cccc(CON=C(c2cccc(C)c2)c2nc(=O)on2C)n1` [Example 78], the chromatographic logP in data set [1] turned out to be 3.96. In addition, the pest or weed control at 500 ppm in the data set on Phytophthora infestans was 70%.

`O=C(Cc1ccccc1)Nc1cccc(CON=C(c2cccc(F)c2)c2nc(=O)o[nH]2)n1` [Example 76] gave a chromatographic logP in data set [1] of 3.04. In addition, the pest or weed control at 500 ppm in the data set on Phytophthora infestans was determined as 90%.

`C#CCCOC(=O)Nc1cccc(CON=C(c2cccc(C)c2)c2nc(=O)on2C)n1` [Example 84] displayed a chromatographic logP in data set [1] of 2.96. In addition, the pest or weed control at 500 ppm in the data set on Phytophthora infestans was 100%.

`C#CCC(C)OC(=O)Nc1cccc(CON=C(c2cccc(C)c2)c2nc(=O)on2C)n1` (stereo not shown) [Example 83] had a chromatographic logP in data set [1] of 3.25. The pest or weed control at 500 ppm in the data set on Phytophthora infestans is 94%.

As to `Cn1oc(=O)nc1C(=NOCc1cccc(NC(=O)OC2CCCCC2)n1)c1cccc(F)c1` [Example 33], the chromatographic logP in data set [1] is 3.92. In the data set on Phytophthora infestans, the pest or weed control at 500 ppm turned out to be 100%.

The molecule `CCCCCOC(=O)Nc1cccc(CON=C(c2cccc(C)c2)c2nc(=O)on2C)n1` [Example 56] came in with a chromatographic logP in data set [1] of 4.11. The pest or weed control at 500 ppm with Phytophthora infestans is 83%.

In data set [1], `COc1ccc(CC(=O)Nc2cccc(CON=C(c3cccc(C)c3)c3nc(=O)on3C)n2)cc1` [Example 100] had a chromatographic logP of 3.19. Also, in the data set with Phytophthora infestans, the pest or weed control at 500 ppm was determined as 100%.

Regarding `CCCCOC(=O)Nc1cccc(CON=C(c2cccc(C)c2)c2nc(=O)on2C)n1` [Example 58], in data set [1], the chromatographic logP was 3.69. For the same molecule, in the data set on Phytophthora infestans, the pest or weed control at 500 ppm was determined as 75%.

In turn, `CCCCCOC(=O)Nc1cccc(CON=C(c2cccc(OC)c2)c2nc(=O)on2C)n1` [Example 102] yielded a chromatographic logP in data set [1] of 3.83. In addition, in the data set on Phytophthora infestans, the pest or weed control at 500 ppm was 98%.

In data set [1], `COc1ccc(CC(=O)Nc2cccc(CON=C(c3cccc(F)c3)c3nc(=O)o[nH]3)n2)cc1` [Example 73] yielded a chromatographic logP of 3. In addition, in the data set with Phytophthora infestans, the pest or weed control at 500 ppm worked out at 95%.

`Cn1oc(=O)nc1C(=NOCc1cccc(NC(=O)SC(C)(C)C)n1)c1ccccc1` [Example 39]: the chromatographic logP in data set [1] is 3.73. In addition, the pest or weed control at 500 ppm in the data set with Phytophthora infestans is 99%.

In data set [1], `COc1cccc(C(=NOCc2cccc(NC(=O)c3cccc(C)c3)n2)c2nc(=O)o[nH]2)c1` [Example 61] registered a chromatographic logP of 3.31.

Consider `CCCCC(C)C(=O)Nc1cccc(CON=C(c2ccccc2)c2nc(=O)on2C)n1` (stereo not shown) [Example 144], for which the chromatographic logP in data set [1] amounted to 3.55.

Molecule `Cn1oc(=O)nc1C(=NOCc1cccc(NC(=O)c2ccccc2)n1)c1cccc(F)c1` [Example 89] showed a chromatographic logP in data set [1] of 3.

In data set [1], `Cn1oc(=O)nc1C(=NOCc1cccc(NC(=O)C2CCCC2)n1)c1ccccc1` [Example 117] registered a chromatographic logP of 2.98.

In data set [1], `CC(C)CC(=O)Nc1cccc(CON=C(c2cccc(F)c2)c2nc(=O)on2C)n1` [Example 90] registered a chromatographic logP of 2.92.

As to `Cn1oc(=O)nc1C(=NOCc1cccc(NC(=O)OCCc2ccccc2)n1)c1cccc(F)c1F` [Example 190], the chromatographic logP in data set [1] was 3.62.

On to `COCCn1oc(=O)nc1C(=NOCc1cccc(NC(=O)OC(C)(C)C)n1)c1ccccc1` [Example 42], for which the chromatographic logP in data set [1] turned out to be 3.61.

The molecule `Cn1oc(=O)nc1C(=NOCc1cccc(NC(=O)OCCCC2CCCCC2)n1)c1ccccc1` [Example 153] gave a chromatographic logP in data set [1] of 5.06.

With `CC#CCC(C)OC(=O)Nc1cccc(CON=C(c2ccccc2)c2nc(=O)on2C)n1` (stereo not shown) [Example 151], the chromatographic logP in data set [1] came to 3.31.

Consider `CN(O)C(=N)/C(=N\OCc1cccc(Br)n1)c1ccccc1` [Example V-12, (2Z)-2-{[(6-bromopyridin-2-yl)methoxy]imino}-N-hydroxy-N-methyl-2-phenylethanimidamide], for which the chromatographic logP in data set [1] (setting [2]) turned out to be 1.39.

Turning to `CC(C(=O)Nc1cccc(CON=C(c2ccccc2)c2nc(=O)on2C)n1)c1ccccc1` (stereo not shown) [Example 155], in data set [1], the chromatographic logP stood at 3.29.

The molecule `C#CCOC(=O)Nc1cccc(CON=C(c2ccccc2)c2nc(=O)on2C)n1` [Example 131] gave a chromatographic logP in data set [1] of 2.57.

Regarding `Cc1cccc(C(=O)Nc2cccc(CON=C(c3ccccc3)c3nc(=O)on3C)n2)c1` [Example 128], the chromatographic logP in data set [1] was determined as 3.27.

Consider `Cn1oc(=O)nc1C(=NOCc1cccc(NC(=O)CCC2CCCCC2)n1)c1ccccc1` [Example 147], for which the chromatographic logP in data set [1] turned out to be 4.06.

Take `COc1cccc(C(=NOCc2cccc(NC(=O)CCc3ccccc3)n2)c2nc(=O)on2C)c1` [Example 164]: in data set [1], the chromatographic logP came out at 3.27.

For the molecule `C#CCCCCOC(=O)Nc1cccc(CON=C(c2ccccc2)c2nc(=O)on2C)n1` [Example 124], the chromatographic logP in data set [1] amounted to 3.21.

Regarding `C#CCCCOC(=O)Nc1cccc(CON=C(c2ccccc2)c2nc(=O)on2C)n1` [Example 122], the chromatographic logP in data set [1] was found to be 2.94.

The molecule `C#CCCOC(=O)Nc1cccc(CO/N=C(\C(=N)N(C)O)c2ccccc2)n1` [Example V-01, but-3-yn-1-yl (6-{[({(1Z)-2-[hydroxy(methyl)amino]-2-imino-1-phenylethylidene}amino)oxy]methyl}pyridin-2-yl)carbamate] returned a chromatographic logP in data set [1] (setting [2]) of 1.63.

The molecule `CN(O)C(=N)/C(=N\OCc1cccc(NC(=O)OC(C)(C)C)n1)c1ccccc1` [Example V-02, tert-butyl (6-{[({(1Z)-2-[hydroxy(methyl)amino]-2-imino-1-phenylethylidene}amino)oxy]methyl}pyridin-2-yl)carbamate] gave a chromatographic logP in data set [1] (setting [2]) of 1.81.

As for `CN(O)C(=N)C(=NOCc1cccc(NC(=O)OC(C)(C)C)n1)c1cccc(F)c1F` [Example V-10], the chromatographic logP in data set [1] (setting [2]) was found to be 1.9.

In turn, `COc1cccc(C(=NOCc2cccc(NC(=O)OCCc3ccccc3)n2)c2nc(=O)on2C)c1` [Example 162] yielded a chromatographic logP in data set [1] of 3.61.

For `Cc1cccc(C(=NOCc2cccc(NC(=O)Cc3ccccc3)n2)c2nc(=O)on2C)c1` [Example 81], the chromatographic logP in data set [1] is 3.23.

`Cn1oc(=O)nc1C(=NOCc1cccc(NC(=O)OCC2CCCCC2)n1)c1ccccc1` [Example 127] had a chromatographic logP in data set [1] of 4.24.

As for `CC(OC(=O)Nc1cccc(CON=C(c2ccccc2)c2nc(=O)on2C)n1)C1CCCCC1` (stereo not shown) [Example 141], the chromatographic logP in data set [1] was 4.56.

In data set [1], `COc1ccc(CC(=O)Nc2cccc(CON=C(c3cccc(F)c3F)c3nc(=O)on3C)n2)cc1` [Example 191] showed a chromatographic logP of 2.98.

For `Cn1oc(=O)nc1C(=NOCc1cccc(NC(=O)CC2CCCC2)n1)c1ccccc1` [Example 115], the chromatographic logP in data set [1] was 3.29.

Take `Cn1oc(=O)nc1C(=NOCc1cccc(NC(=O)OCCCCCl)n1)c1ccccc1` [Example 143]: the chromatographic logP in data set [1] is 3.27. The chromatographic logP values of the last two molecules are within 0.2 log units of each other.

In data set [1], `Cn1oc(=O)nc1C(=NOCc1cccc(NC(=O)C2(C)CCCCC2)n1)c1ccccc1` [Example 136] returned a chromatographic logP of 3.68.

In turn, `COc1cccc(C(=NOCc2cccc(NC(=O)OC(C)(C)C)n2)C(=N)N(C)O)c1` [Example V-06] came in with a chromatographic logP in data set [1] (setting [2]) of 1.86.

Consider `Cc1cccc(C(=NOCc2cccc(NC(=O)OCCC(C)C)n2)c2nc(=O)on2C)c1` [Example 91], for which the chromatographic logP in data set [1] is 4.03.

In data set [1] (setting [2]), `COCCN(O)C(=N)C(=NOCc1cccc(NC(=O)OC(C)(C)C)n1)c1ccccc1` [Example V-07] yielded a chromatographic logP of 1.93.

On to `COc1cccc(C(=O)Nc2cccc(CON=C(c3cccc(C)c3)c3nc(=O)on3C)n2)c1` [Example 88], for which the chromatographic logP in data set [1] is 3.31.

With `Cn1oc(=O)nc1C(=NOCc1cccc(NC(=O)OCCCCl)n1)c1ccccc1` [Example 133], in data set [1], the chromatographic logP amounted to 3.02.

`Cn1oc(=O)nc1C(=NOCc1cccc(NC(=O)c2csc3ccccc23)n1)c1ccccc1` [Example 142] yielded a chromatographic logP in data set [1] of 3.65.

`C/C=C/CCCOC(=O)Nc1cccc(CON=C(c2ccccc2)c2nc(=O)on2C)n1` [Example 183] displayed a chromatographic logP in data set [1] of 3.81.

On to `CN(O)C(=N)C(=NOCc1cccc(N)n1)c1ccccc1` [Example V-03], for which, in data set [1] (setting [2]), the chromatographic logP is 0.22.
